Assay results published in patent US12171229B2, “Heteroaryl-triazole and heteroaryl-tetrazole compounds as pesticides” (BAYER AKTIENGESELLSCHAFT, priority 2018, dated 2024).

Legend:
Assay type in all cases: in vivo
Spodoptera frugiperda = Spodoptera frugiperda spray test; conditions: 168 h, after 7 days, larvae on maize leaf sections
Method: Spodoptera frugiperda—Spray Test
(§1) To produce a suitable preparation of active compound, 1 part by weight of active compound is mixed with the stated amount of solvents and is diluted with water, containing an emulsifier concentration of 1000 ppm, to the desired concentration. Further test concentrations are prepared by dilution with emulsifier containing water.
Maize (Zea mays) leaf sections are sprayed with a preparation of the active ingredient of the desired concentration. Once dry, the leaf sections are infested with fall armyworm larvae (Spodoptera frugiperda).
After 7 days mortality in % is determined. 100% means all caterpillars have been killed and 0% means none of the caterpillars have been killed.

[1] = tested on: Culex quinquefasciatus strain P00; test: Culex quinquefasciatus test (CULXFA surface treatment & contact assay); conditions: surface concentration 4 mg/m^2, exposure 30 minutes, 24 hours after contact, read-out: efficacy (mortality)
Method: Culex Quinquefasciatus Test (CULXFA Surface Treatment & Contact Assay)
(§2) Solvent: Aceton+2000 ppm rapeseed oil methyl ester (RME)
(§3) In order to produce a sufficient, active ingredient containing solution it is necessary to solve the test compound in the solvent-mix (acetone at 2 mg/ml/RME 2000 ppm). This solution is pipetted onto a glazed tile and after evaporation of the acetone, adult mosquitoes of the species Culex quinquefasciatus strain P00 are placed onto the dried surface. The exposure time is 30 minutes.
(§4) Mortality in percent (%) is determined 24 hours after contact of the insects to the treated surface. 100% mortality means that all tested insects are dead, whereas 0% means that no insect died.

[2] = tested on: Aedes aegypti strain MONHEIM; test: Aedes aegypti test (AEDSAE surface treatment & contact assay); conditions: surface concentration 20 mg/m^2, exposure 30 minutes, 24 hours after contact, read-out: efficacy (mortality)
Method: Aedes Aegypti Test (AEDSAE Surface Treatment & Contact Assay)
as §2
as §3, with “Aedes aegypti” for “Culex quinquefasciatus”, “MONHEIM” for “P00”
as §4

Diabrotica balteata = Diabrotica balteata spray test; conditions: Diabrotica balteata, in Triticum aestivum, 168 h, after 7 days, larvae on wheat seeds, read-out: efficacy (seedlings grown up); for pest or weed control at 80 µg/disc, 250 g/ha: 80 μg/well (=250 g/ha); for pest or weed control at 160 µg/disc, 500 g/ha: 160 μg/well (=500 g/ha)
Method: Diabrotica balteata—Spray Test [table] To produce a suitable preparation of active compound, 1 part by weight of active compound is mixed with the stated amount of solvent, and the concentrate is diluted with water, containing an emulsifier concentration of 1000 ppm, to the desired concentration. Further test concentrations are prepared by dilution with emulsifier containing water. Soaked wheat seeds (Triticum aestivum) are placed in a multiple well plate filled with agar and some water and are incubated for 1 day to germinate (5 seeds per well). The germinated wheat seeds are sprayed with a test solution containing the desired concentration of the active ingredient. Afterwards each unit is infected with 10-20 larvae of the banded cucumber beetle (Diabrotica balteata). After 7 days efficacy in % is determined. 100% means all the seedlings have grown up like in the untreated, uninfected control; 0% means none of the seedlings have grown.

Boophilus microplus = Boophilus microplus injection test; conditions: Rhipicephalus microplus, 168 h; 20 μg/animal injected into the abdomen; adult engorged female ticks; egg deposition after 7 days; read-out: efficacy (infertile eggs)
Method: Boophilus Microplus—Injection Test Solvent: dimethyl sulfoxide To produce a suitable preparation of active compound, 10 mg of active compound are dissolved in 0.5 ml solvent, and the concentrate is diluted with solvent to the desired concentration. Five adult engorged female ticks (Boophilus microplus) are injected with 1 μl compound solution into the abdomen. The ticks are transferred into replica plates and incubated in a climate chamber. After 7 days egg deposition of fertile eggs is monitored. Eggs where fertility is not visible are stored in a climate chamber till hatching after about 42 days. An efficacy of 100% means all eggs are infertile; 0% means all eggs are fertile.

Ctenocephalides felis [3] = test: Ctenocephalides felis oral test; conditions: 48 h, 100 ppm in cattle blood, after 2 days, adult unfed cat fleas
Method: Ctenocephalides Felis—Oral Test
Solvent: dimethyl sulfoxide
To produce a suitable preparation of active compound, 10 mg of active compound are dissolved in 0.5 ml solvent, and the concentrate is diluted with cattle blood to the desired concentration.
Approximately 20 adult unfed cat fleas (Ctenocephalides felis) are placed in flea chambers. The blood chamber, sealed with parafilm on the bottom, are filled with cattle blood supplied with compound solution and placed on the gauze covered top of the flea chamber, so that the fleas are able to suck the blood. The blood chamber is heated to 37° C. whereas the flea chamber is kept at room temperature.
After 2 days mortality in % is determined. 100% means all the fleas have been killed; 0% means none of the fleas have been killed.

Myzus persicae [4] = test: Myzus persicae spray test; conditions: foliar, 120 h, after 5 days, Chinese cabbage leaf disks
Method: Myzus persicae—Spray Test
as §1
Chinese cabbage (Brassica pekinensis) leaf disks infected with all instars of the green peach aphid (Myzus persicae), are sprayed with a preparation of the active ingredient of the desired concentration.
(§5) After 5 days mortality in % is determined. 100% means all aphids have been killed and 0% means none of the aphids have been killed.

Myzus persicae [5] = test: Myzus persicae oral test; conditions: 120 h, 4 ppm, after 5 days
Method: Solvent: 100 parts by weight acetone
To produce a suitable preparation of active compound, 1 part by weight of active compound is mixed with the stated amount of solvent, and the concentrate is diluted with water to the desired concentration.
50 μl compound solution is filled in microtiter plates and 150 μl IPL41 insect medium (33%+15% sugar) is added to obtain a total volume of 200 μl per well. Afterwards the plates are sealed with parafilm through which a mixed population of the green peach aphid (Myzus persicae) can suck on the compound preparation.
as §5

Ctenocephalides felis [6] = test: Ctenocephalides felis in-vitro contact test, adult cat flea; conditions: 5 μg/cm^2 (=500 g/ha), after 48 hours, adult cat fleas, read-out: efficacy (fleas dead or moribund)
Method: Ctenocephalides Felis—In-Vitro Contact Tests Adult Cat Flea 9 mg compound is solved in 1 ml acetone and diluted with acetone to the desired concentration. 250 μl of the test solution is filled in 25 ml glass test tubes and homogeneously distributed on the inner walls by rotation and tilting on a shaking device (2 h at 30 rpm). With a compound concentration of 900 ppm, an inner surface of 44.7 cm^2 and a homogeneous distribution, a dose of 5 μg/cm^2 is achieved. After the solvent has evaporated, each test tube is filled with 5-10 adult cat fleas (Ctenocephalides felis), closed with a perforated lid and incubated in a lying position at room temperature and relative humidity. After 48 hours efficacy is determined. The fleas are patted on the ground of the tubes and are incubated on a heating plate at 45-50° C. for at most 5 minutes. Immotile or uncoordinated moving fleas, which are not able to escape the heat by climbing upwards, are marked as dead or moribund. […] An efficacy of 100% means all fleas are dead or moribund; 0% means no fleas are dead or moribund.

Nezara viridula = Nezara viridula spray test; conditions: 96 h, after 4 days, larvae on barley plants
Method: Nezara viridula—Spray Test
as §1, with “solvent,” for “solvents”, “and the concentrate” for “and”
Barley plants (Hordeum vulgare) infested with larvae of the southern green stink bug (Nezara viridula) are sprayed with a test solution containing the desired concentration of the active ingredient.
After 4 days mortality in % is determined. 100% means all the stink bugs have been killed: 0% means none of the stink bugs have been killed.

| SMILES | mortality at 500 g/ha (Spodoptera frugiperda) [%] | mortality at 4 mg/m2 [1] [%] | mortality at 20 mg/m2 [2] [%] | pest or weed control at 80 µg/disc, 250 g/ha (Diabrotica balteata) [%] | pest or weed control at 160 µg/disc, 500 g/ha (Diabrotica balteata) [%] | pest or weed control at 0.02 mg (Boophilus microplus) [%] | mortality at 100 ppm (Ctenocephalides felis [3]) [%] | mortality at 100 g/ha (Myzus persicae [4]) [%] | mortality at 4 ppm (Myzus persicae [5]) [%] | pest or weed control at 5 µg/cm2 (Ctenocephalides felis [6]) [%] | mortality at 500 g/ha (Myzus persicae [4]) [%] | mortality at 100 g/ha (Spodoptera frugiperda) [%] | mortality at 500 g/ha (Nezara viridula) [%] | mortality at 100 g/ha (Nezara viridula) [%] |
| --- | --- | --- | --- | --- | --- | --- | --- | --- | --- | --- | --- | --- | --- | --- |
| C[C@H](NC(=O)c1cc(F)c(F)c(F)c1)c1ncnn1-c1ccc(C#N)cn1 [Example I-020] | 100 | 90 to 100 | 90 to 100 | 100 | 100 | 100 | 100 | – | – | – | – | – | – | – |
| C[C@H](NC(=O)c1cc(F)c(Cl)c(F)c1)c1ncnn1-c1ccc(C#N)cn1 [Example I-021] | 100 | – | – | – | – | – | 100 | 100 | 100 | – | – | – | – | – |
| CC[C@H](NC(=O)c1cc(Cl)cc(OC(F)(F)F)c1)c1ncnn1-c1ccc([N+](=O)[O-])cn1 [Example I-071] | – | – | – | – | – | – | – | – | – | 80 | – | – | – | – |
| C[C@H](NC(=O)c1cc(Cl)cc(C(F)(F)F)c1)c1ncnn1-c1ccc(NC(=O)C2(C#N)CC2)cn1 [Example I-076] | 100 | – | – | 100 | 100 | 100 | 90 | – | 100 | – | 100 | 100 | – | – |
| C[C@H](NC(=O)c1cc(Cl)cc(C(F)(F)F)c1)c1ncnn1-c1nccs1 [Example I-082, 3-chloro-N-{(1S)-1-[1-(1,3-thiazol-2-yl)-1H-1,2,4-triazol-5-yl]ethyl}-5-(trifluoromethyl)benzamide] | 100 | – | – | 100 | 100 | – | – | – | – | 90 | – | 100 | 100 | – |
| C[C@H](NC(=O)c1cc(Cl)cc(C(F)(F)F)c1)c1ncnn1-c1ncc(Br)s1 [Example I-083, N-{(1S)-1-[1-(5-bromo-1,3-thiazol-2-yl)-1H-1,2,4-triazol-5-yl]ethyl}-3-chloro-5-(trifluoromethyl)benzamide] | 100 | – | – | 100 | 100 | – | 100 | – | – | 90 | – | 100 | – | – |
| C[C@H](NC(=O)c1cc(Cl)cc(C(F)(F)F)c1)c1ncnn1-c1ccc(NC(=S)C2CC2)cn1 [Example I-098] | 100 | – | – | 100 | 100 | – | 100 | 90 | 100 | – | 90 | 100 | 90 | – |
| C[C@H](NC(=O)c1cc(Cl)cc(C(F)(F)F)c1)c1ncnn1-c1ccc(NC(=O)C2(Cl)CC2)cn1 [Example I-104] | 100 | – | – | – | 100 | – | – | – | 90 | – | 90 | 100 | 90 | – |
| C[C@H](NC(=O)c1cc(Cl)cc(OC(F)(F)F)c1)c1ncnn1-c1ccc(NC(=O)C2CC2)cn1 [Example I-105] | 100 | – | – | 100 | 100 | – | – | – | 100 | – | 90 | 100 | 100 | 100 |
| CC(=O)Nc1ccc(-n2ncnc2[C@H](C)NC(=O)c2cc(Cl)cc(OC(F)(F)F)c2)nc1 [Example I-106] | 100 | – | – | 100 | 100 | – | – | – | 100 | – | 90 | 100 | 100 | – |
| C[C@H](NC(=O)c1cc(Cl)cc(OC(F)F)c1)c1ncnn1-c1ccc(C#N)cn1 [Example I-107] | 100 | – | – | – | 100 | – | – | 90 | 100 | – | 90 | 100 | 100 | 100 |
| Cc1nc([C@H](C)NC(=O)c2cc(Cl)cc(Cl)c2)n(-c2ccc(C#N)cn2)n1 [Example I-115] | 100 | – | – | – | 100 | – | – | 90 | 100 | – | 100 | 100 | 100 | – |
| Cc1nc([C@H](C)NC(=O)c2cc(Cl)cc(OC(F)(F)F)c2)n(-c2ccc(C#N)cn2)n1 [Example I-116] | 100 | – | – | – | 100 | – | – | 100 | 100 | – | 100 | 100 | 100 | 90 |
